Laboratory results taken from patent publication US12161689B2, “Anti-infective formulations” (NEW MEXICO TECH UNIVERSITY RESEARCH PARK CORPORATION, priority 2018, dated 2024).
Where a SMILES comes first, the peptide text is derived from it. Bridges are numbered along the chain shown (N, C = ends). [ ]: non-standard residue; d: D form. The star is where a group is joined. Ileψ(thiazoline)Cys = CC[C@H](C)[C@H](N)C1=N[C@H](C(=O)*)CS1; dOrn = NCCC[C@@H](N)C(=O)O

Columns and labels:
red blood cells = experiment: Hemolysis on blood agar plate; settings: 5 μL spotted; refrigerated overnight
Yesenia pestis (Kimo 6) = format: cell-based, Yersinia pestis; settings: 10 μL spot; for antibacterial activity: Yersinia pestis KIM6, 24 to 48 hours at 37° C.; for efficacy against Yesenia pestis (Kimo 6), comparison with antibiotics: incubation period of 1 day
[1] = system: Mycobacterium abscessus (ATCC 19977); experiment: Spot on lawn, MHA plate: killing / diameter of clearance; format: cell-based; set-up: key: “+” indicates antibacterial activity with complete clearing; “−” indicates no antibacterial activity; settings: 10 μL spot, 24 to 48 hours at 37° C.
[2] = system: CRE NDM-1 MDR (ATCC BAA 2146); experiment: as above; format: cell-based, Enterobacteriaceae; set-up: key to antibacterial activity: “+” indicates antibacterial activity with complete clearing; “−” indicates no antibacterial activity; settings: for antibacterial activity: 24 to 48 hours at 37° C.
[3] = system: multi-drug resistant Pseudomonas aeruginosa (ATCC 2114); experiment: as above; format: cell-based; settings: 10 μL spot; for antibacterial activity: 24 to 48 hours at 37° C.
MRSA (ATCC BAA44) = experiment: as above; format: cell-based, Staphylococcus aureus; settings: for antibacterial activity: 24 to 48 hours at 37° C.
[4] = system: multi-drug resistant Acinetobacter baumannii (ATCC 1797); experiment: as above; format: cell-based; settings: 10 μL spot; for antibacterial activity: 24 to 48 hours at 37° C.
[5] = system: Vancomycin-resistant enterococcus (VRE) (ATCC 51299); experiment: as above; format: cell-based; set-up: key to antibacterial activity: “+” indicates antibacterial activity with complete clearing; “−” indicates no antibacterial activity; settings: 10 μL spot; for antibacterial activity: 24 to 48 hours at 37° C.
[6] = system: Escherichia coli (O157:H7) (ATCC 51657); experiment: as above; format: cell-based; set-up: key to antibacterial activity: “+” indicates antibacterial activity with complete clearing; “−” indicates no antibacterial activity; settings: for antibacterial activity: 24 to 48 hours at 37° C.
[7] = system: multi-drug-resistant E. coli CDC AR0493; experiment: Spot on lawn, MHA plate: killing; format: cell-based; settings: 10 μL spot, 24 to 48 hours at 37° C.
Streptococcus pyogenes = experiment: Spot on lawn, MHA plate: killing / diameter of clearance; format: cell-based; set-up: key to antibacterial activity: “+” indicates antibacterial activity with complete clearing; “−” indicates no antibacterial activity; settings: for antibacterial activity / killing of Streptococcus pyogenes: 10 μL spot; for antibacterial activity: 24 to 48 hours at 37° C.; for killing of Streptococcus pyogenes: incubation period of 1 day; for killing of S. pyogenes: after 7 days of incubation
[8] = system: Stenotrophomonas maltophilia (ATCC 13637); experiment: as above; format: cell-based; set-up: key: “+” indicates antibacterial activity with complete clearing; “−” indicates no antibacterial activity; settings: S. maltophilia (ATCC 13637); 10 μL spot; 24 to 48 hours at 37° C.
[9] = system: multi-drug resistant E. coli (AR 0348); experiment: Spot on lawn, MHA plate: killing; format: cell-based; settings: 10 μL; 1 day at 37° C.
Method: An overnight growth of multi-drug resistant E. coli (AR 0348) was made in MHB. The samples were diluted 1:1000, and spread onto a MHA plate.

MCR-1 E. coli (AR 0350) = experiment: Spot on lawn, MHA plate: killing; format: cell-based; settings: 10 μL drops; 1 day at 37° C.
Source text: An overnight growth of MCR-1 E. coli (AR 0350) was made in MHB, and was spread undiluted onto a MHA plate.

MRSA BAA-1717 (USA 300) = experiment: Spot on lawn, MHA plate: killing / diameter of clearance; settings: 10 μL; overnight at 37° C. (FIG. 63)
[10] = system: Salmonella enteriditis CDC AR0496; experiment: Spot on lawn, MHA plate: killing; format: cell-based; settings: 10 μL spot, 24 to 48 hours at 37° C.
[11] = system: multi-drug resistant Burkholderia cepacia (ATCC 10856); experiment: Spot on lawn, MHA plate: killing / diameter of clearance; format: cell-based; settings: for killing of multi-drug resistant Burkholderia cepacia: 10 μL, overnight at 37° C. (FIG. 63); for antibacterial activity: 10 μL spot, 24 to 48 hours at 37° C.
[12] = system: Shigella flexneri 85W 2332; experiment: Spot on lawn, MHA plate: killing; format: cell-based; settings: 10 μL spot, 24 to 48 hours at 37° C.
[13] = system: Bacillus subtilis (ATCC 6633); experiment: Spot on lawn, MHA plate: killing / diameter of clearance; format: cell-based; settings: 10 μL spot; incubation period of 1 day
[14] = system: multi-drug resistant E. coli (AR 0346); experiment: Spot on lawn, MHA plate: killing; format: cell-based; settings: 10 μL; 3 days at 37° C.
Method: An overnight growth of multi-drug resistant E. coli (AR 0346) was made in MHB. The samples were diluted 1:1000, and spread onto a MHA plate.

[15] = Mycobacterium abscessus ATCC19977
[16] = CRE NDM-1 (MDR) ATCC BAA-2146, 10 μL spot
[17] = CRE NDM-1 MDR (ATCC BAA 2146), 10 μL spot
[18] = E. Coli (O157:H7) (ATCC 51657), 10 μL spot
[19] = Streptococcus pyogenes 85W 1180
[20] = 10 μL spot, incubation period of 1 day
[21] = Burkholderia cepacia ATCC 10856

O=C(O)c1ccccc1O [2% salicylic acid, salicylic acid]
blood hemolysis (red blood cells): little to no hemolysis

CC[C@H](C)[C@H](N)C1=N[C@H](C(=O)N[C@@H](CC(C)C)C(=O)N[C@H](CCC(=O)O)C(=O)N[C@H](C(=O)N[C@H]2CCCCNC(=O)[C@H](CC(N)=O)NC(=O)[C@@H](CC(=O)O)NC(=O)[C@H](Cc3cnc[nH]3)NC(=O)[C@@H](Cc3ccccc3)NC(=O)[C@H]([C@@H](C)CC)NC(=O)[C@@H](CCCN)NC2=O)[C@@H](C)CC)CS1 [Bacitracin] ({Ileψ(thiazoline)Cys}-L[dE]IK[dOrn]I[dF]H[dD]N; lactam 4-C)
antibacterial activity (Yesenia pestis (Kimo 6)): − | antibacterial activity ([1]; M. abscessus (ATCC 19977)): − | antibacterial activity [1, 15]: − | antibacterial activity [2, 16]: − | antibacterial activity [2, 17]: − | antibacterial activity ([3]; P. aeruginosa MDR (ATCC 2114)): − | antibacterial activity ([3]; P. aeruginosa MDR ATCC 2114): − | antibacterial activity (MRSA (ATCC BAA44); MRSA (ATCC BAA44), 10 μL spot): − | antibacterial activity (MRSA (ATCC BAA44); MRSA ATCC BAA-44, 10 μL spot): − | antibacterial activity ([4]; A. Baumannii MDR (ATCC 1797)): − | antibacterial activity ([4]; A. baumannii MDR ATCC 1797): − | killing of VRE ([5]; incubation period of 1 day): killed | antibacterial activity ([5]; VRE (ATCC 51299)): − | antibacterial activity ([5]; VRE): − | antibacterial activity [6, 18]: − | antibacterial activity ([6]; E. coli O157:H7, 10 μL spot): − | antibacterial activity [7]: − | antibacterial activity (Streptococcus pyogenes; S. pyogenes): − | antibacterial activity (Streptococcus pyogenes; [19]): − | antibacterial activity [8]: −

C/C(=C\C(=O)OCCCCCCCCC(=O)O)C[C@@H]1OC[C@H](C[C@@H]2O[C@H]2[C@@H](C)[C@H](C)O)[C@@H](O)[C@H]1O [Mupirocin]
killing of multi-drug resistant E. coli (AR 0348) [9]: fully killed | efficacy against Yesenia pestis (Kimo 6), comparison with antibiotics (Yesenia pestis (Kimo 6)): more effective than MM8 | antibacterial activity (Yesenia pestis (Kimo 6)): + | antibacterial activity ([1]; M. abscessus (ATCC 19977)): − | antibacterial activity [1, 15]: − | killing of CRE NDM-1 MDR [2, 20]: killed | antibacterial activity [2, 16]: − | antibacterial activity [2, 17]: − | killing of CRE NDM-1 MDR ([2]; after 5 days of incubation): only formulations that killed | regrowth of CRE NDM-1 MDR ([2]; after 5 days of incubation): not observed | killing of MCR-1 E. coli (AR 0350; colisitin-resistance only) (MCR-1 E. coli (AR 0350)): fully killed | killing of multi-drug resistant Pseudomonas aeruginosa ([3]; incubation period of 1 day (FIG. 55)): killed | antibacterial activity ([3]; P. aeruginosa MDR (ATCC 2114)): + | antibacterial activity ([3]; P. aeruginosa MDR ATCC 2114): + | killing of MRSA (MRSA (ATCC BAA44); 10 μL spot, incubation period of 1 day (FIG. 52)): killed | antibacterial activity (MRSA (ATCC BAA44); MRSA (ATCC BAA44), 10 μL spot): + | antibacterial activity (MRSA (ATCC BAA44); MRSA ATCC BAA-44, 10 μL spot): + | killing of MRSA (MRSA (ATCC BAA44); after 4 days of incubation): only formulations that killed | regrowth of MRSA (MRSA (ATCC BAA44); after 4 days of incubation): not observed | killing of A. baumannii ([4]; incubation period of 1 day (FIG. 54)): killed | antibacterial activity ([4]; A. Baumannii MDR (ATCC 1797)): − | antibacterial activity ([4]; A. baumannii MDR ATCC 1797): − | antibacterial activity ([5]; VRE (ATCC 51299)): − | antibacterial activity ([5]; VRE): − | killing of MRSA BAA-1717 (USA 300) (MRSA BAA-1717 (USA 300)): killed | killing of Escherichia coli (O157:H7) [6, 20]: killed | antibacterial activity [6, 18]: + | antibacterial activity ([6]; E. coli O157:H7, 10 μL spot): + | killing of Escherichia coli (O157:H7) ([6]; after 5 days of incubation): only formulations that killed | regrowth of Escherichia coli (O157:H7) ([6]; after 5 days of incubation): not observed | antibacterial activity [10]: + | killing of multi-drug resistant Burkholderia cepacia [11]: killed | antibacterial activity ([11]; B. cepacia (ATCC 10856)): + | antibacterial activity [11, 21]: + | antibacterial activity [12]: + | antibacterial activity [7]: + | killing of Streptococcus pyogenes (Streptococcus pyogenes): killed | antibacterial activity (Streptococcus pyogenes; S. pyogenes): + | antibacterial activity (Streptococcus pyogenes; [19]): + | killing of S. pyogenes (Streptococcus pyogenes): further killed | killing of Bacillus subtilis [13]: killed | killing of multi-drug resistant E. coli (AR 0346) [14]: fully killed | antibacterial activity [8]: −

O=C(OOC(=O)c1ccccc1)c1ccccc1 [benzoyl peroxide]
blood hemolysis (red blood cells): complete hemolysis

Neomycin
efficacy against Yesenia pestis (Kimo 6), comparison with antibiotics (Yesenia pestis (Kimo 6)): more effective than MM8 | antibacterial activity (Yesenia pestis (Kimo 6)): − | antibacterial activity ([1]; M. abscessus (ATCC 19977)): − | antibacterial activity [1, 15]: − | antibacterial activity [2, 16]: − | antibacterial activity [2, 17]: − | antibacterial activity ([3]; P. aeruginosa MDR (ATCC 2114)): − | antibacterial activity ([3]; P. aeruginosa MDR ATCC 2114): − | antibacterial activity (MRSA (ATCC BAA44); MRSA (ATCC BAA44), 10 μL spot): − | antibacterial activity (MRSA (ATCC BAA44); MRSA ATCC BAA-44, 10 μL spot): − | antibacterial activity ([4]; A. Baumannii MDR (ATCC 1797)): − | antibacterial activity ([4]; A. baumannii MDR ATCC 1797): − | antibacterial activity ([5]; VRE (ATCC 51299)): − | antibacterial activity ([5]; VRE): − | killing of Escherichia coli (O157:H7) [6, 20]: killed | antibacterial activity [6, 18]: + | antibacterial activity ([6]; E. coli O157:H7, 10 μL spot): + | killing of Escherichia coli (O157:H7) ([6]; after 5 days of incubation): only formulations that killed | regrowth of Escherichia coli (O157:H7) ([6]; after 5 days of incubation): not observed | killing of multi-drug resistant Burkholderia cepacia [11]: killed | antibacterial activity ([11]; B. cepacia (ATCC 10856)): − | antibacterial activity [11, 21]: − | antibacterial activity [7]: − | killing of Streptococcus pyogenes (Streptococcus pyogenes): killed | regrowth of Streptococcus pyogenes colonies in treated area (Streptococcus pyogenes; FIG. 59, 7 days): colonies invaded | antibacterial activity (Streptococcus pyogenes; S. pyogenes): + | antibacterial activity (Streptococcus pyogenes; [19]): + | killing of S. pyogenes (Streptococcus pyogenes): further killed | killing of Bacillus subtilis [13]: killed | antibacterial activity [8]: +
